Measurements published in PMC5724689, “Increased Conformational Flexibility of a Macrocycle–Receptor Complex Contributes to Reduced Dissociation Rates” (Chemistry (Weinheim an Der Bergstrasse, Germany), 2017).

Columns and labels:
[1] = target: T1, 14-3-3ζ (14‐3‐3 isoform ζ) (Homo sapiens, UniProt P63104); experiment: biochemical; format: binding; details: ITC, T = 303.15 K, pH 7.4; mean value of 3 runs
T1 construct: 14-3-3ζ (aa 1-245) with remaining His-Tag; made in house
T1 sequence (P63104 1-245): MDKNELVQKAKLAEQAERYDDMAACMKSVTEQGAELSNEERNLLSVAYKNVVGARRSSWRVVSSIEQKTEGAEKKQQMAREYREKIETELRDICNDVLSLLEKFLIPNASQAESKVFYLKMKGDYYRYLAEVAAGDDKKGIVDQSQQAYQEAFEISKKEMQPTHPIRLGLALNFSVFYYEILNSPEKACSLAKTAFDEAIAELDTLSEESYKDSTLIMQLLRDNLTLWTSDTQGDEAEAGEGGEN

[2] = target: T1, 14-3-3ζ (14‐3‐3 isoform ζ); experiment: biochemical; format: binding; details: for koff: 19F NMR line shape analysis, slow exchange, 50 mM HEPES, 100 mM NaCl, 2 mM MgCl2, 1% DMSO, 10% D2O, pH 7.4, room temperature, error from fitting procedure (Equation S1), read-out: dissociation rate koff (NMR); for association rate kon = koff × Kd^-1 (Figure 2b) / kon: calculated from koff (19F NMR) and ITC-derived Kd; for kon: read-out: association rate kon = koff × Kd^-1

Row | SMILES | Kd [1] [nM] | koff [2] [s⁻¹] | association rate kon = koff × Kd^-1 (Figure 2b) [2] [s^-1M^-1 10^6] | kon [2] [M⁻¹ s⁻¹]
1 | CC(C)C[C@H](NC(=O)[C@H](CC(=O)O)NC(=O)[C@H](CC(C)C)NC(=O)[C@]1(C)CCCCCCCC[C@@](C)(NC(=O)CNC(=O)[C@H](CCC(N)=O)NC(=O)CNC(=O)C(F)(F)F)C(=O)N[C@@H](CC(C)C)C(=O)N[C@@H](CC(=O)O)C(=O)N1)C(=O)N[C@@H](C)C(=O)N[C@@H](CO)C(N)=O [MC18] | 362 | 1.58 | 4.38 ±0.47 | 4.38e+06
2 | CC(C)C[C@H](NC(=O)[C@H](CC(=O)O)NC(=O)[C@H](CC(C)C)NC(=O)[C@]1(C)CCCCCCCCCCCC[C@](C)(NC(=O)CNC(=O)[C@H](CCC(N)=O)NC(=O)CNC(=O)C(F)(F)F)C(=O)N[C@@H](CC(C)C)C(=O)N[C@@H](CC(=O)O)C(=O)N1)C(=O)N[C@@H](C)C(=O)N[C@@H](CO)C(N)=O [MC22] | 111 | 0.45 | 4.12 ±0.39 | 4.12e+06
